Data as given in patent publication US9556165B2 (priority 2012, dated 2017).
Converted amounts (≈) assume the structure as drawn.

How the values were obtained:
Assay type in all cases: cell-based
[1] = tested on: P. aeruginosa PAO1; assay: MIC determination, broth microdilution (CLSI); details: for MIC: Pseudomonas aeruginosa, PAO1, strain 6
[2] = tested on: E. coli J62-TEM-3; assay: MIC determination, broth microdilution (CLSI); details: for MIC: Escherichia coli, J62TEM3, read-out: strain 18 MIC, strain 18
[3] = tested on: strain 20; assay: MIC determination, broth microdilution (CLSI)
[4] = tested on: S. aureus 133; assay: MIC determination, broth microdilution (CLSI); details: for MIC: Staphylococcus aureus, 133, strain 11, read-out: strain 11 MIC
[5] = tested on: P. aeruginosa 2297-con (AmpC derepressed); assay: MIC determination, broth microdilution (CLSI); details: for MIC: Pseudomonas aeruginosa, read-out: strain 8 MIC, strain 8
[6] = tested on: K. pneumoniae 60; assay: MIC determination, broth microdilution (CLSI); details: for MIC: Klebsiella pneumoniae, 60, strain 2
[7] = tested on: B. fragilis 6688; assay: MIC determination, broth microdilution (CLSI); details: Bacteroides fragilis, 6688, strain 15; read-out: strain 15 MIC
[8] = tested on: S. pneumoniae 113; assay: MIC determination, broth microdilution (CLSI); details: Streptococcus pneumoniae, 113, strain 14; read-out: strain 14 MIC
[9] = tested on: M. catarrhalis ICB489; assay: MIC determination, broth microdilution (CLSI); details: for MIC: Moraxella catarrhalis, ICB489, strain 12
[10] = tested on: M. morganii 126/3048; assay: MIC determination, broth microdilution (CLSI); details: for MIC: Morganella morganii, 126/3048, strain 5
[11] = tested on: E. coli J62; assay: MIC determination, broth microdilution (CLSI); details: for MIC: Escherichia coli, J62, strain 17, read-out: strain 17 MIC
[12] = tested on: S. maltophilia ICB7569; assay: MIC determination, broth microdilution (CLSI); details: for MIC: Stenotrophomonas maltophilia, ICB7569, strain 10
[13] = tested on: E. cloacae 34654; assay: MIC determination, broth microdilution (CLSI); details: for MIC: Enterobacter cloacae, 34654, strain 3
[14] = tested on: H. influenzae ATCC 49247; assay: MIC determination, broth microdilution (CLSI); details: for MIC: Haemophilus influenzae, ATCC49247, strain 13, read-out: strain 13 MIC
[15] = tested on: C. freundii K21/3034; assay: MIC determination, broth microdilution (CLSI); details: for MIC: Citrobacter freundii, K21/3034, strain 4
[16] = tested on: strain 19; assay: MIC determination, broth microdilution (CLSI)
[17] = tested on: P. aeruginosa 2297 (AmpC wt); assay: MIC determination, broth microdilution (CLSI); details: for MIC: Pseudomonas aeruginosa, strain 7
[18] = tested on: E. coli ATCC25922; assay: MIC determination, broth microdilution (CLSI); details: for MIC: Escherichia coli, ATCC25922, strain 1
[19] = tested on: A. baumannii ATCC15308; assay: MIC determination, broth microdilution (CLSI); details: for MIC: Acinetobacter baumannii, ATCC15308, strain 9
[20] = tested on: strain 21; assay: MIC determination, broth microdilution (CLSI)
[21] = tested on: C. perfringens DSM756; assay: microbe, parasite or virus in culture; details: strain 16

Structure (SMILES) | MIC [1] [µg/mL] | MIC [2] [µg/mL] | MIC [3] [µg/mL] | MIC [4] [µg/mL] | MIC [5] [µg/mL] | MIC [6] [µg/mL] | MIC [7] [µg/mL] | MIC [8] [µg/mL] | MIC [9] [µg/mL] | MIC [10] [µg/mL] | MIC [11] [µg/mL] | MIC [12] [µg/mL] | MIC [13] [µg/mL] | MIC [14] [µg/mL] | MIC [15] [µg/mL] | MIC [16] [µg/mL] | MIC [17] [µg/mL] | MIC [18] [µg/mL] | MIC [19] [µg/mL] | MIC [20] [µg/mL] | other results
C[C@H]1[C@H](NC(=O)/C(=N\OCCOc2ccc(C(=N)N)cc2)c2csc(N)n2)C(=O)N1S(=O)(=O)O [Example 9, (2S,3S)-3-{[(2Z)-2-(2-Amino-1,3-thiazol-4-yl)-2-{[2-(4-carbamimidoylphenoxy)ethoxy]imino}acetyl]amino}-2-methyl-4-oxoazetidine-1-sulfonic acid] | 2 (≈ 3.91 µM) | 16 (≈ 31.3 µM) | 0.125 (≈ 0.244 µM) | ≤ 0.063 | 16 (≈ 31.3 µM) | 0.125 (≈ 0.244 µM) | 8 (≈ 15.6 µM) | 4 (≈ 7.82 µM) | ≤ 0.063 | 0.125 (≈ 0.244 µM) | 0.25 (≈ 0.489 µM) | 32 (≈ 62.6 µM) | 0.125 (≈ 0.244 µM) | 0.25 (≈ 0.489 µM) | 0.125 (≈ 0.244 µM) | 0.125 (≈ 0.244 µM) | 2 (≈ 3.91 µM) | 0.125 (≈ 0.244 µM) | 0.5 (≈ 0.977 µM) | 0.125 (≈ 0.244 µM) | 
C[C@H]1[C@H](NC(=O)/C(=N\OC(COc2ccc(C(=N)N)cc2)C(=O)O)c2csc(N)n2)C(=O)N1S(=O)(=O)O (mixture of isomers) [Example 26A, (2S and 2R)-2-({[(1Z)-1-(2-Amino-1,3-thiazol-4-yl)-2-{[(2S,3S)-2-methyl-4-oxo-1-sulfoazetidin-3-yl]amino}-2-oxoethylidene]amino}oxy)-3-(4-carbamidinoyl-phenoxy)propanoic acid] |  | 32 |  | ≤ 0.063 |  |  | 8 | 32 |  |  |  | 16 |  | 2 |  |  |  |  | 8 |  | strain 6 MIC [1]: 1 mg/L; strain 20 MIC [3]: 0.125 mg/L; strain 8 MIC [5]: 8 mg/L; strain 2 MIC [6]: 0.031 mg/L; strain 12 MIC [9]: ≦0.063 mg/L; strain 5 MIC [10]: ≦0.063 mg/L; strain 17 MIC [11]: 0.125 mg/L; strain 3 MIC [13]: 0.125 mg/L; strain 4 MIC [15]: ≦0.063 mg/L; strain 19 MIC [16]: ≦0.063 mg/L; strain 7 MIC [17]: 2 mg/L; strain 1 MIC [18]: ≦0.063 mg/L; strain 21 MIC [20]: 0.125 mg/L
CC1(C)[C@H](NC(=O)/C(=N\OC(COc2ccc(C(=N)N)c(O)c2)C(=O)O)c2csc(N)n2)C(=O)N1OS(=O)(=O)O (mixture of isomers) [Example 34B, (2S and 2R)-2-({[(1Z)-1-(2-Amino-1,3-thiazol-4-yl)-2-{[(3S)-2,2-dimethyl-4-oxo-1-(sulfo-oxy)azetidin-3-yl]amino}-2-oxoethylidene]amino}oxy)-3-(4-carbamimidoyl-3-hydroxyphenoxy)propanoic acid] |  |  |  |  |  |  |  |  |  |  |  |  |  |  |  |  |  |  |  |  | strain 6 MIC [1]: 32 mg/L; strain 18 MIC ([2]; strain 18): 32 mg/L; strain 16 MIC [21]: 32 mg/L; strain 20 MIC [3]: 4 mg/L; strain 11 MIC ([4]; strain 11): 0.25 mg/L; strain 8 MIC [5]: 32 mg/L; strain 2 MIC [6]: 8 mg/L; strain 12 MIC [9]: 0.5 mg/L; strain 5 MIC [10]: 4 mg/L; strain 17 MIC [11]: 16 mg/L; strain 10 MIC ([12]; strain 10): 32 mg/L; strain 3 MIC [13]: 4 mg/L; strain 13 MIC ([14]; strain 13): 8 mg/L; strain 4 MIC [15]: 8 mg/L; strain 19 MIC [16]: 4 mg/L; strain 7 MIC [17]: 32 mg/L; strain 1 MIC [18]: 8 mg/L; strain 9 MIC ([19]; strain 9): 32 mg/L; strain 21 MIC [20]: 8 mg/L
C[C@H]1[C@H](NC(=O)/C(=N\OC(C)(C)COc2ccc(C(=N)N)cc2)c2csc(N)n2)C(=O)N1S(=O)(=O)O [Example 18, (2S,3S)-3-{[(2Z)-2-(2-Amino-1,3-thiazol-4-yl)-2-({[1-(4-carbamimidoylphenoxy)-2-methylpropan-2-yl]oxy}imino)acetyl]amino}-2-methyl-4-oxoazetidine-1-sulfonic acid] | 4 (≈ 7.41 µM) | 4 (≈ 7.41 µM) | 2 (≈ 3.71 µM) | 0.25 (≈ 0.463 µM) | 16 (≈ 29.7 µM) | 1 (≈ 1.85 µM) | 4 (≈ 7.41 µM) | 4 (≈ 7.41 µM) | 0.5 (≈ 0.927 µM) | 1 (≈ 1.85 µM) | 2 (≈ 3.71 µM) | 16 (≈ 29.7 µM) | 2 (≈ 3.71 µM) | 0.5 (≈ 0.927 µM) | 1 (≈ 1.85 µM) | 2 (≈ 3.71 µM) | 4 (≈ 7.41 µM) | 1 (≈ 1.85 µM) | 16 (≈ 29.7 µM) | 2 (≈ 3.71 µM) | 
C[C@H]1[C@H](NC(=O)/C(=N\OCCOc2cnc(C(=N)N)cn2)c2csc(N)n2)C(=O)N1S(=O)(=O)O [Example 30, (2S,3S)-3-{[(2Z)-2-(2-Amino-1,3-thiazol-4-yl)-2-({2-[(5-carbamimidoylpyrazin-2-yl)oxy]-ethoxy}imino)acetyl]amino}-2-methyl-4-oxoazetidine-1-sulfonic acid] | 4 (≈ 7.79 µM) | 16 (≈ 31.2 µM) | 0.25 (≈ 0.487 µM) | 0.125 (≈ 0.243 µM) | 32 (≈ 62.3 µM) | ≤ 0.063 | 8 (≈ 15.6 µM) | 4 (≈ 7.79 µM) | 0.25 (≈ 0.487 µM) | ≤ 0.063 | 0.25 (≈ 0.487 µM) |  | 0.25 (≈ 0.487 µM) | 0.5 (≈ 0.974 µM) | ≤ 0.063 | 0.25 (≈ 0.487 µM) | 4 (≈ 7.79 µM) | 0.125 (≈ 0.243 µM) | 1 (≈ 1.95 µM) | 0.25 (≈ 0.487 µM) | 
